Test results reported in article PMC9090415, “Discovery of small molecule inhibitors of Plasmodium falciparum apicoplast DNA polymerase” (Journal of Enzyme Inhibition and Medicinal Chemistry, 2022).

Biological target: P. falciparum apicoplast DNA polymerase (Pf-apPOL) (Plasmodium falciparum, UniProt Q8ILY1)
Assay: Fluorescence-based high-throughput DNA polymerase assay (molecular beacon), primary screen and dose-response
Format: biochemical
Details: for IC50: supplemental file 2, sheet IC50 nontoxic compounds, Pf-apPOL; for DNA Pol: 90 min, 10 µM
Procedure, shortened: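 Single-point screening used 10 µM compound with 20 nM polymerase, 20 nM hairpin substrate and 6 µM dNTPs for 90 min at 25 °C. Confirmatory titrations (2.5–80 µM) followed fluorescence at three times, and IC50 was derived from a fit including a cooperativity term n.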

Chain of P. falciparum apicoplast DNA polymerase (Pf-apPOL) (Q8ILY1 entry or part of it): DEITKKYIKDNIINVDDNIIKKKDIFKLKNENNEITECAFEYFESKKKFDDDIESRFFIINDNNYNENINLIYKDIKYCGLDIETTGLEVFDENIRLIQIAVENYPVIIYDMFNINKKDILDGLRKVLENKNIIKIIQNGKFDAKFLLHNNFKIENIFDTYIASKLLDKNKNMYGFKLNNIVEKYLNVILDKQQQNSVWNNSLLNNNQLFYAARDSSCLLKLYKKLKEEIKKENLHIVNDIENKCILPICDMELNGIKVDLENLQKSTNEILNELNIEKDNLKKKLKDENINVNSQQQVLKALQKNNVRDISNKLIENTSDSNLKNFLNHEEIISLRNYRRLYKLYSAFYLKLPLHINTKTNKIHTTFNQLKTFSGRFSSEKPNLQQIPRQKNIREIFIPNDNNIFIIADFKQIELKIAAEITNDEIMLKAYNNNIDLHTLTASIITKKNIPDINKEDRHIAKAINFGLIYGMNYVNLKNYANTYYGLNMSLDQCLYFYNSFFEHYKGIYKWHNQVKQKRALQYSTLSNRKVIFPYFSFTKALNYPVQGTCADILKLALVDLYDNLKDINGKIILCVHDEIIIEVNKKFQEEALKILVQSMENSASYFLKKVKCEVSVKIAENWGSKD

With `COc1cccc(Oc2c(C(F)(F)F)oc3cc(OC(=O)N(C)C)ccc3c2=O)c1` [Molecule 52] the IC50 was 40.6 µM.
In the case of `O=C(Nc1nnc(-c2cccs2)o1)c1ccc([N+](=O)[O-])o1` [Molecule 74], the IC50 is reported as 30.8 µM.
In the case of `CSC(C)C(=O)C=CN(C)C` (centres unmarked) [Molecule 71], the IC50 is reported as 26.9 µM.
Molecule `NC(=O)c1cc[n+](CC2=C(C(=O)O)N3C(=O)[C@@H](NC(=O)[C@@H](c4ccccc4)S(=O)(=O)[O-])[C@H]3SC2)cc1` [Molecule 9] has an IC50 of 4.4 µM.
`CC(=O)OCC1=C(C(=O)O)N2C(=O)[C@@H](NC(=O)Cc3cccs3)[C@H]2SC1` [Molecule 73] was tested, and the IC50 was 16.6 µM.
`COc1ccccc1CC(=O)N1CCc2c(nc3cc(-c4ccccc4Cl)[nH]n3c2=O)C1` [Molecule 49] was tested, and the IC50 was 12.5 µM.
`O=C(Nc1cccc(Cl)c1)Nc1nnc(-c2ccncc2)s1` [KU0022348] was tested, and the “% inhibition Apo pol 10'” value (DRC-1, concentration 2.5) was 12.66%, the “% inhibition Apo pol 10'” value (DRC-1, concentration 5) was -6.2957% and the “% inhibition Apo pol 10'” value (DRC-1, concentration 10) was 19.819%. The “% inhibition Apo pol 10'” value (DRC-1, concentration 20) was 75.3838%, the “% inhibition Apo pol 10'” value (DRC-1, concentration 40) was 88.0392% and the “% inhibition Apo pol 10'” value (DRC-1, concentration 80) was 86.8157%. The “% inhibition Apol 90'” value (DRC-1, concentration 2.5) was 6.139%, the “% inhibition Apol 90'” value (DRC-1, concentration 5) was -8.679% and the “% inhibition Apol 90'” value (DRC-1, concentration 10) was 12.9186%. For the same molecule, the “% inhibition Apol 90'” value (DRC-1, concentration 20) was 70.4338%, the “% inhibition Apol 90'” value (DRC-1, concentration 40) was 84.2961% and the “% inhibition Apol 90'” value (DRC-1, concentration 80) was 86.1912%. The “% inhibition apPOL 180'” value (DRC-1, concentration 2.5) was 0.3318%, the “% inhibition apPOL 180'” value (DRC-1, concentration 5) was -11.6465% and the “% inhibition apPOL 180'” value (DRC-1, concentration 10) was 5.454%. For the same molecule, the “% inhibition apPOL 180'” value (DRC-1, concentration 20) was 60.8254%, the “% inhibition apPOL 180'” value (DRC-1, concentration 40) was 80.4807% and the “% inhibition apPOL 180'” value (DRC-1, concentration 80) was 84.4697%. For the same molecule, the “% inhibition Apo pol 5'” value (DRC-2, concentration 2.5) was 16%, the “% inhibition Apo pol 5'” value (DRC-2, concentration 5) was 32% and the “% inhibition Apo pol 5'” value (DRC-2, concentration 10) was 46%. For the same molecule, the “% inhibition Apo pol 5'” value (DRC-2, concentration 20) was 47%, the “% inhibition Apo pol 5'” value (DRC-2, concentration 40) was 48% and the “% inhibition Apo pol 5'” value (DRC-2, concentration 80) was 40%. For the same molecule, the “% inhibition Apol 40'” value (DRC-2, concentration 2.5) was 18%, the “% inhibition Apol 40'” value (DRC-2, concentration 5) was 42% and the “% inhibition Apol 40'” value (DRC-2, concentration 10) was 64%. For the same molecule, the “% inhibition Apol 40'” value (DRC-2, concentration 20) was 66%, the “% inhibition Apol 40'” value (DRC-2, concentration 40) was 71% and the “% inhibition Apol 40'” value (DRC-2, concentration 80) was 57%. For the same molecule, the “% inhibition ApPOL 90'” value (DRC-2, concentration 2.5) was 16%, the “% inhibition ApPOL 90'” value (DRC-2, concentration 5) was 41% and the “% inhibition ApPOL 90'” value (DRC-2, concentration 10) was 65%. For the same molecule, the “% inhibition ApPOL 90'” value (DRC-2, concentration 20) was 67%, the “% inhibition ApPOL 90'” value (DRC-2, concentration 40) was 73% and the “% inhibition ApPOL 90'” value (DRC-2, concentration 80) was 64%. For the same molecule, the “% inhibition apPOL 180'” value (DRC-2, concentration 2.5) was 6%, the “% inhibition apPOL 180'” value (DRC-2, concentration 5) was 30% and the “% inhibition apPOL 180'” value (DRC-2, concentration 10) was 58%. The “% inhibition apPOL 180'” value (DRC-2, concentration 20) was 60%, the “% inhibition apPOL 180'” value (DRC-2, concentration 40) was 70% and the “% inhibition apPOL 180'” value (DRC-2, concentration 80) was 65%. The “% inhibition Apo pol 5'” value (conc. 2.5, DRC-2) was 16%, the “% inhibition ApPOL 90'” value (conc. 2.5, DRC-2) was 16% and the “% inhibition Apol 40'” value (conc. 10, DRC-2) was 64%. For the same molecule, the “% inhibition ApPOL 90'” value (conc. 10, DRC-2) was 65%, the “% inhibition ApPOL 90'” value (conc. 80, DRC-2) was 64% and the “% inhibition apPOL 180'” value (conc. 80, DRC-2) was 65%. The “DNA Pol” value (primary screen value by plate and well) was 61 and the “DNA Pol” value (primary screen value of the 186 hits, unit not given) was 61.
